From ChEMBL document CHEMBL1127917, “The phosphonate analog of 5-methylthioribose 1--phosphate” (Bioorg Med Chem Lett, 1994)
Activity calls are given as the source filed them. No cut-off for these calls is given here.

Test system: Klebsiella pneumoniae
Experiment: Tested for inhibition of oxygen uptake by the compound included in an extract of Klebsiella pneumoniae along with substrate 1 at the dose of 0.8 mM; No inhibition
Format: functional, organism-based

SMILES: CSCC1OC(CP(=O)(O)O)[C@H](O)[C@@H]1O (stereo partly specified)
- Activity: inactive
